This is an account of results in ChEMBL document CHEMBL4000244, “Probing A-form DNA: A fluorescent aminosugar probe and dual recognition by anthraquinone-neomycin conjugates” (Bioorg Med Chem, 2017).

pIC50: −log10 of the molar value. The source made the active and inactive calls. No cut-off for these calls is given here.

Assay [1] in a line: Displacement of fluorescein-neomycin from d(G4C4)2 DNA at 200 nM by fluorescence assay.
A short description of assay [2]: Displacement of fluorescein-neomycin from d(G4C4)2 DNA by Scatchard plot analysis.
Assay [3] is described as follows: Displacement of thiazole orange from d(G4C4)2 DNA by Scatchard plot analysis.
Assay [4] is described as follows: Binding affinity to d(G4C4)2 DNA major groove assessed as stabilization of A-from DNA conformation by measuring induction of sharper band at 265 nanometer at drug:DNA molar ratio of 1:1 after 30 mins by CD spectroscopic method.
A short description of assay [5]: Binding affinity to d(G4C4)2 DNA major groove assessed as stabilization of A-from DNA conformation after 30 mins by CD spectroscopic method.
A short description of assay [6]: Binding affinity to d(G4C4)2 DNA major groove assessed as stabilization of A-from DNA conformation at drug:DNA molar ratio of 4:1 after 30 mins by CD spectroscopic method.
Assay [7] in a line: Displacement of fluorescein-neomycin from d(G4C4)2 DNA major groove by fluorescence titration assay.
A short description of assay [8]: Binding affinity to d(G4C4)2 DNA major groove assessed as stabilization of A-from DNA conformation at 0.05 to 1.5 equiv after 30 mins by fluorescein-neomycin probe based CD spectroscopic method.
Assay [9] in a line: Binding affinity to d(G4C4)2 DNA major groove assessed as stabilization of A-from DNA conformation at 0.25 to 1.5 equiv after 30 mins by thiazole orange probe based CD spectroscopic method.

As for `NCC1O[C@H](O[C@H]2[C@@H](O)[C@H](O[C@@H]3[C@@H](O)[C@H](N)C[C@H](N)[C@H]3O[C@H]3O[C@H](CN)[C@@H](O)[C@H](O)[C@H]3N)O[C@@H]2CNC(=S)Nc2ccc3c(c2)C(=O)c2ccccc2C3=O)[C@H](N)[C@@H](O)[C@@H]1O` (some centres undefined), in assay [1], the inhibition result is “Active”.

Take `NCC1O[C@H](O[C@H]2[C@@H](O)[C@H](O[C@@H]3[C@@H](O)[C@H](N)C[C@H](N)[C@H]3O[C@H]3O[C@H](CN)[C@@H](O)[C@H](O)[C@H]3N)O[C@@H]2CNC(=S)NCCNC(=S)NCc2ccc3c(c2)C(=O)c2ccccc2C3=O)[C@H](N)[C@@H](O)[C@@H]1O` (some centres undefined): in assay [1], the inhibition entry is “Active”. Besides, the Ka in assay [2] was determined as 4.88 ×10⁶ /M; in assay [3], 3.85 ×10⁶ /M.

As to `NCC1O[C@H](O[C@H]2[C@@H](O)[C@H](O[C@@H]3[C@@H](O)[C@H](N)C[C@H](N)[C@H]3O[C@H]3O[C@H](CN)[C@@H](O)[C@H](O)[C@H]3N)O[C@@H]2CSCCNC(=S)Nc2ccc3c(c2)C(=O)c2ccccc2C3=O)[C@H](N)[C@@H](O)[C@@H]1O` (some centres undefined), in assay [1], the inhibition result is “Active”.

In the case of `NCC1O[C@H](O[C@H]2[C@@H](O)[C@H](O[C@@H]3[C@@H](O)[C@H](N)C[C@H](N)[C@H]3O[C@H]3O[C@H](CN)[C@@H](O)[C@H](O)[C@H]3N)O[C@@H]2CSCCNC(=S)NCCCCCCCCCCNC(=S)NCc2ccc3c(c2)C(=O)c2ccccc2C3=O)[C@H](N)[C@@H](O)[C@@H]1O` (some centres undefined), the inhibition result in [1] is “Active”.

On to `NCC1O[C@H](O[C@H]2[C@@H](O)[C@H](O[C@@H]3[C@@H](O)[C@H](N)C[C@H](N)[C@H]3O[C@H]3O[C@H](CN)[C@@H](O)[C@H](O)[C@H]3N)O[C@@H]2CSCCNC(=S)NCCNC(=S)NCc2ccc3c(c2)C(=O)c2ccccc2C3=O)[C@H](N)[C@@H](O)[C@@H]1O` (some centres undefined), for which the inhibition entry in [1] is “Active”. In addition, the Ka in assay [2] was determined as 2.28 ×10⁶ /M; in [3], 3.09 ×10⁶ /M.

Consider `O=C1c2ccccc2C(=O)c2ccccc21`, for which the inhibition entry in assay [1] is “inactive”.

Regarding `NCC1O[C@H](O[C@H]2[C@@H](O)[C@H](O[C@H]3[C@H](O)[C@@H](N)C[C@@H](N)[C@@H]3O[C@H]3O[C@H](CN)[C@@H](O)[C@H](O)[C@H]3N)O[C@@H]2CO)[C@H](N)[C@@H](O)[C@@H]1O` (some centres undefined), the outcome in assay [4] was Active. The inhibition result in assay [1] is “inactive”.

In the case of `NCC1O[C@H](O[C@H]2[C@@H](O)[C@H](O[C@@H]3[C@@H](O)[C@H](N)C[C@H](N)[C@H]3O[C@H]3O[C@H](CN)[C@@H](O)[C@H](O)[C@H]3N)O[C@@H]2CNC(=S)NCCCNC(=S)NCc2ccc3c(c2)C(=O)c2ccccc2C3=O)[C@H](N)[C@@H](O)[C@@H]1O` (some centres undefined), the inhibition entry in [1] is “Active”.

With `OCC(F)(F)F`, in assay [5], the result was Active.

`CN1/C(=C/c2cc[n+](C)c3ccccc23)Sc2ccccc21`: the outcome in assay [6] was inactive.

`NCC1O[C@H](O[C@H]2[C@@H](O)[C@H](O[C@@H]3[C@@H](O)[C@H](N)C[C@H](N)[C@H]3O[C@H]3O[C@H](CN)[C@@H](O)[C@H](O)[C@H]3N)O[C@@H]2CNC(=S)NCCCOCCCCOCCCNC(=S)NCc2ccc3c(c2)C(=O)c2ccccc2C3=O)[C@H](N)[C@@H](O)[C@@H]1O` (some centres undefined): the inhibition result in [1] is “Active”. Also, the results for the Ka in assay [2] and in assay [3] were 8.83 ×10⁶ /M and 11.8 ×10⁶ /M, respectively.

Broadly, the pIC50 is the IC50 on a negative log10 scale, so that one unit is a factor of ten. A higher pIC50 goes with a small IC50. Regarding `NCC1O[C@H](O[C@H]2[C@@H](O)[C@H](O[C@@H]3[C@@H](O)[C@H](N)C[C@H](N)[C@H]3O[C@H]3O[C@H](CN)[C@@H](O)[C@H](O)[C@H]3N)O[C@@H]2CNC(=S)NCc2ccc3c(c2)C(=O)c2ccccc2C3=O)[C@H](N)[C@@H](O)[C@@H]1O` (some centres undefined), the inhibition entry in assay [1] is “Active”. Further, the Ka in [2] came to 14.1 ×10⁶ /M; in assay [3] it was 5.27 ×10⁶ /M. Moreover, the pIC50 in assay [7] was 6.13.

On to `NCC1O[C@H](O[C@H]2[C@@H](O)[C@H](O[C@@H]3[C@@H](O)[C@H](N)C[C@H](N)[C@H]3O[C@H]3O[C@H](CN)[C@@H](O)[C@H](O)[C@H]3N)O[C@@H]2CSCCNC(=S)NCCCNC(=S)NCc2ccc3c(c2)C(=O)c2ccccc2C3=O)[C@H](N)[C@@H](O)[C@@H]1O` (some centres undefined), for which the inhibition result in assay [1] is “Active”.

With `NCC1O[C@H](O[C@H]2[C@@H](O)[C@H](O[C@@H]3[C@@H](O)[C@H](N)C[C@H](N)[C@H]3O[C@H]3O[C@H](CN)[C@@H](O)[C@H](O)[C@H]3N)O[C@@H]2CSCCNC(=S)NCc2ccc3c(c2)C(=O)c2ccccc2C3=O)[C@H](N)[C@@H](O)[C@@H]1O` (some centres undefined), the result in assay [8] and in [9] was Active. Further, the inhibition result in assay [1] was “Active”. Also, the values for the Ka in [2] and in assay [3] were 25.3 ×10⁶ /M and 3.62 ×10⁶ /M, respectively.

Consider `NCCCNCCCCNCCCN`, for which the outcome in assay [4] was Active.

In the case of `CCO`, in assay [5], the outcome was Active.

Regarding `NCC1O[C@H](O[C@H]2[C@@H](O)[C@H](O[C@@H]3[C@@H](O)[C@H](N)C[C@H](N)[C@H]3O[C@H]3O[C@H](CN)[C@@H](O)[C@H](O)[C@H]3N)O[C@@H]2CNC(=S)NCCCCCCCCCCNC(=S)NCc2ccc3c(c2)C(=O)c2ccccc2C3=O)[C@H](N)[C@@H](O)[C@@H]1O` (some centres undefined), in assay [1], the inhibition entry was “Active”.

In the case of `NCC1O[C@H](O[C@H]2[C@@H](O)[C@H](O[C@@H]3[C@@H](O)[C@H](N)C[C@H](N)[C@H]3O[C@H]3O[C@H](CN)[C@@H](O)[C@H](O)[C@H]3N)O[C@@H]2CSCCNC(=S)NCCCOCCCCOCCCNC(=S)NCc2ccc3c(c2)C(=O)c2ccccc2C3=O)[C@H](N)[C@@H](O)[C@@H]1O` (some centres undefined), the inhibition result in [1] is “Active”. Further, the Ka came to 4.02 ×10⁶ /M in assay [2] and 18.4 ×10⁶ /M in assay [3].
